{
  "source": "patent US6998410B2",
  "about": "“Compositions” (Altana Pharma AG, priority 1997, dated 2006)",
  "test_system": "Adult Sprague Dawley rats lavaged until their endogenous lung surfactant is washed out",
  "assay": "Arterial oxygen partial pressure (PaO2) in lung-lavaged, ventilated rats (animal model of ARDS) after intratracheal instillation",
  "type": "in vivo, rat (Sprague Dawley)",
  "details": "for PaO2, average value (± standard deviation): Compound A 600 μg/kg alone",
  "source_text": "Adult Sprague Dawley rats are artificially ventilated with pure oxygen and a positive end-expiratory pressure (PEEP; in order to guarantee oxygenation of the rats) and lavaged until their endogenous lung surfactant is washed out (D. Häfner, U. Kilian and R. Beume: Comparison of four lung surfactant preparations in an animal model of adult respiratory distress syndrome (ARDS). Am. Rev. Respir. Dis. 1993, 147:A719; D. Häfner, P. -G. Germann, D. Hauschke, Pulmonary Pharmacology (1994) 7, 319–332). This is manifested by the fact that in the animals the preliminary values of the arterial oxygen partial pressure (PaO2) of 500–550 mm Hg (in the case of pure oxygen ventilation and PEEP) decrease to values of 50–110 mm Hg. Animals of the control group, which are not treated with lung surfactant, remain with their PaO2 at these low values throughout the observation period. Sixty minutes after the PaO2 has decreased to these values, lung surfactant or lung surfactant together with N-(3,5-dichloropyrid-4-yl)-3-cyclopropylmethoxy-4-difluoromethoxybenzamide is instilled intratracheally. The blood gases are determined 30 and 120 minutes after instillation.\nIn Table 1 and Table 2 which follow, in line A the average values (±standard deviation) of the PaO2 are indicated in mm Hg for the time 30 minutes (constant PEEP of 8 cm H2O) after intratracheal instillation and in line B 120 minutes after intratracheal instillation. […] This follows by comparison with the untreated control animals. […] It is therefore possible to save a part of the very expensive lung surfactant, or else to obtain an increased action of each individual component.",
  "data": [
    {"compound": "O=C(Nc1c(Cl)cncc1Cl)c1ccc(OC(F)F)c(OCC2CC2)c1", "note": "[Compound A, N-(3,5-dichloropyrid-4-yl)-3-cyclopropylmethoxy-4-difluoromethoxybenzamide]", "values": [
      {"measurement": "PaO2, average value (± standard deviation)", "setting": "line A: 30 minutes after intratracheal instillation (constant PEEP of 8 cm H2O)", "value": "59 ± 12", "unit": "mm Hg"},
      {"measurement": "PaO2, average value (± standard deviation)", "setting": "line B: 120 minutes after intratracheal instillation", "value": "75 ± 24", "unit": "mm Hg"},
      {"measurement": "Influence on the PaO2 (in words)", "setting": "sole administration, by comparison with the untreated control animals", "value": "no influence on the PaO2"}
    ]}
  ]
}
